Data published in patent publication US6352703B1, “Compositions and methods for detecting and killing termites” (Board of Supervisors of Louisiana State University and …, priority 1997, dated 2002).

What was measured:
[1] = test system: Mucor spp. fungus; experiment: Antifungal filter paper disk test, trial 1 (Sabouraud dextrose agar); type: cell-based
Procedure: Mucor was isolated from a Formosan termite nest in our laboratory, a nest originally collected from a cottonwood tree in New Orleans, La. The fungus comprised a white mat that covered large areas of the nest that had been exposed to air and water. Fungus was scraped from the nest and suspended in distilled, de-ionized water with a Pasteur pipette. This suspension was streaked on Sabouraud dextrose agar (“SDA”) (Difco Laboratories, Detroit, Mich.) in 100×15 mm plates containing 20 mL SDA. Pure cultures were obtained from individual colonies on these plates as needed. Cultures were maintained on SDA plates in a 27° C. incubator without light until used.
Filter paper disks (Whatman #1, 1.5 cm) were treated with naphthalene, butylated hydroxytoluene (BHT), dioctyl phthalate, or adipic dioctyl ester, at rates of 2 μg, 20 μg, or 200 μg, dissolved in 100 μL hexane. Controls were treated with hexane alone. For each treatment, just prior to testing for antifungal properties, 1 mL of the hexane solution and ten filter paper disks were placed in a vial, and N2 was used to evaporate the hexane.
A suspension was prepared by scraping Mucor conidia (spores) from the culture plates, and mixing into distilled, deionized water with a Pasteur pipette. A thin layer of this suspension was spread over the surface of each of 130 SDA plates by placing each plate onto an inoculation turntable (Fisher Scientific, Hampton, N.H.), pipetting 0.2 mL of the suspension into the center of the plate, spinning the turntable, and spreading the suspension onto the agar with a bent glass rod. The plates were allowed to dry for two hours. A treated filter paper disk was then placed in the center of each plate (10 plates/treatment), and the plates were incubated at 27° C. The extent to which each filter paper disk was covered by fungus was determined by visual inspection (by the method described in greater detail below) after four, five, and six days.
(§1) Fungal growth on each filter paper disk was recorded by making tracings of the disks, inking in areas with visible fungal growth. The fraction of each disk covered by fungus was measured by making photocopy enlargements of these drawings, cutting out the enlarged disks, weighing the entire circle, cutting out the inked areas of the circle (corresponding to fungal growth), and weighing the latter. The fraction of each circle covered with fungus was then calculated as the ratio of these weights. (The weight of the photocopy toner was negligible.)
(§2) Coverage of filter paper disks was analyzed by the ANOVA procedure (SAS Institute, Version 6.11, Cary, N.C.). Tukey's Studentized Range (HSD) Test was used for comparison of mean separations (α=0.05).

[2] = test system: Mucor spp. fungus; experiment: Antifungal filter paper disk test, trial 2 (cornmeal agar, sealed plates); type: cell-based
Procedure: A second trial was conducted with filter papers treated with naphthalene, BHT, or 2,6-di-t-butyl-4-methyl-phenol (“DBP”). A fungal suspension was prepared as in the first trial. Spore concentrations were determined with a counting chamber (Petroff-Hauser, Hauser Scientific Partnership, Horsham, Pa.). Concentrations were adjusted to approximately 10^7 spores/mL. In the first trial fungus grew on SDA quickly, forming a thick mat that soon filled the entire petri dish. Therefore, in the second trial cornmeal agar (CMA, Difco Laboratories, Detroit, Mich.) was used to slow the growth of the fungus during the six-day observation period. A thin layer of the spore suspension was spread over the surface of each of 24 cornmeal agar plates using a turntable and bent glass rod, as previously described.
(§3) Filter paper disks were treated with naphthalene, BHT, or DBP at rates of 2 μg, 20 μg, or 200 μg, prepared as in the first trial. On each plate were placed four filter paper disks spaced equidistant from one another (one disk containing each of the three application rates of one of the test compounds, and one disk containing only the hexane control). Each plate was then covered and sealed with parafilm to reduce the release of volatile compounds. The concentration of naphthalene in the headspace was 0.04 μg/cm^3; except in trial 3 below, in which the concentration was 34.6 μg/cm^3, about 700 times the concentration we have observed in termite nest materials. The growth of fungus on and around each filter paper disk was recorded three, four, and five days after treatment. The experiment was then repeated, increasing the rates of naphthalene, BHT, and DBP to 200 μg, 600 μg, and 1000 μg (trial 3).
as §1, §2

[3] = test system: Mucor spp. fungus; experiment: Antifungal filter paper disk test, trial 3 (cornmeal agar, sealed plates, increased rates); type: cell-based
Procedure: A second trial was conducted with filter papers treated with naphthalene, BHT, or 2,6-di-t-butyl-4-methyl-phenol (“DBP”). A fungal suspension was prepared as in the first trial. Spore concentrations were determined with a counting chamber (Petroff-Hauser, Hauser Scientific Partnership, Horsham, Pa.). Concentrations were adjusted to approximately 10^7 spores/mL. In the first trial fungus grew on SDA quickly, forming a thick mat that soon filled the entire petri dish. […] A thin layer of the spore suspension was spread over the surface of each of 24 cornmeal agar plates using a turntable and bent glass rod, as previously described.
as §3, with “The growth of fungus on and around each filter paper disk was recorded three, four, and five days after treatment.” left out
as §1, §2

[4] = test system: ants; experiment: Killing of ants; conditions: in vivo
[5] = trial 2, 0 μg disk (hexane only) on the same sealed plate as the compound's treated disks
[6] = trial 3, 0 μg disk (hexane only) on the same sealed plate as the compound's treated disks

Cc1cc(C(C)(C)C)c(O)c(C(C)(C)C)c1 [BHT, butylated hydroxytoluene]
Fraction Covered, Day 4 (mean percentage of filter paper disk surface covered by fungus) ([1]; trial 1, rate 2 μg per disk): 70%
Fraction Covered, Day 5 (mean percentage of filter paper disk surface covered by fungus) ([1]; trial 1, rate 2 μg per disk): 85%
Fraction covered, Day 6 (mean percentage of filter paper disk surface covered by fungus) ([1]; trial 1, rate 2 μg per disk): 92%
Fraction Covered, Day 4 (mean percentage of filter paper disk surface covered by fungus) ([1]; trial 1, rate 20 μg per disk): 27%
Fraction Covered, Day 5 (mean percentage of filter paper disk surface covered by fungus) ([1]; trial 1, rate 20 μg per disk): 65%
Fraction covered, Day 6 (mean percentage of filter paper disk surface covered by fungus) ([1]; trial 1, rate 20 μg per disk): 76%
Fraction Covered, Day 4 (mean percentage of filter paper disk surface covered by fungus) ([1]; trial 1, rate 200 μg per disk): 28%
Fraction Covered, Day 5 (mean percentage of filter paper disk surface covered by fungus) ([1]; trial 1, rate 200 μg per disk): 56%
Fraction covered, Day 6 (mean percentage of filter paper disk surface covered by fungus) ([1]; trial 1, rate 200 μg per disk): 93%
Fraction Covered, Day 3 (mean percentage of filter paper disk surface covered by fungus) [2, 5]: 93%
Fraction Covered, Day 4 (mean percentage of filter paper disk surface covered by fungus) [2, 5]: 94%
Fraction Covered, Day 5 (mean percentage of filter paper disk surface covered by fungus) [2, 5]: 96%
Fraction Covered, Day 3 (mean percentage of filter paper disk surface covered by fungus) ([2]; trial 2, rate 2 μg per disk): 85%
Fraction Covered, Day 4 (mean percentage of filter paper disk surface covered by fungus) ([2]; trial 2, rate 2 μg per disk): 90%
Fraction Covered, Day 5 (mean percentage of filter paper disk surface covered by fungus) ([2]; trial 2, rate 2 μg per disk): 90%
Fraction Covered, Day 3 (mean percentage of filter paper disk surface covered by fungus) ([2]; trial 2, rate 20 μg per disk): 93%
Fraction Covered, Day 4 (mean percentage of filter paper disk surface covered by fungus) ([2]; trial 2, rate 20 μg per disk): 95%
Fraction Covered, Day 5 (mean percentage of filter paper disk surface covered by fungus) ([2]; trial 2, rate 20 μg per disk): 98%
Fraction Covered, Day 3 (mean percentage of filter paper disk surface covered by fungus) ([2]; trial 2, rate 200 μg per disk): 95%
Fraction Covered, Day 4 (mean percentage of filter paper disk surface covered by fungus) ([2]; trial 2, rate 200 μg per disk): 99%
Fraction Covered, Day 5 (mean percentage of filter paper disk surface covered by fungus) ([2]; trial 2, rate 200 μg per disk): 100%
Fraction Covered, Day 3 (mean percentage of filter paper disk surface covered by fungus) [3, 6]: 59%
Fraction Covered, Day 4 (mean percentage of filter paper disk surface covered by fungus) [3, 6]: 100%
Fraction Covered, Day 5 (mean percentage of filter paper disk surface covered by fungus) [3, 6]: 100%
Fungal coverage of treated disks ([3]; trial 3, fourth day): ~100%
Fraction Covered, Day 3 (mean percentage of filter paper disk surface covered by fungus) ([3]; trial 3, rate 200 μg per disk): 30%
Fraction Covered, Day 4 (mean percentage of filter paper disk surface covered by fungus) ([3]; trial 3, rate 200 μg per disk): 96%
Fraction Covered, Day 5 (mean percentage of filter paper disk surface covered by fungus) ([3]; trial 3, rate 200 μg per disk): 95%
Fraction Covered, Day 3 (mean percentage of filter paper disk surface covered by fungus) ([3]; trial 3, rate 600 μg per disk): 53%
Fraction Covered, Day 4 (mean percentage of filter paper disk surface covered by fungus) ([3]; trial 3, rate 600 μg per disk): 97%
Fraction Covered, Day 5 (mean percentage of filter paper disk surface covered by fungus) ([3]; trial 3, rate 600 μg per disk): 100%
Fraction Covered, Day 3 (mean percentage of filter paper disk surface covered by fungus) ([3]; trial 3, rate 1000 μg per disk): 16%
Fraction Covered, Day 4 (mean percentage of filter paper disk surface covered by fungus) ([3]; trial 3, rate 1000 μg per disk): 99%
Fraction Covered, Day 5 (mean percentage of filter paper disk surface covered by fungus) ([3]; trial 3, rate 1000 μg per disk): 100%
Coverage of filter paper versus the DBP or naphthalene treatments ([3]; trial 3, three days after treatment, P=0.0001): significantly greater
Effectiveness at killing ants compared with naphthalene [4]: even more effective than naphthalene at killing ants
